Laboratory results published in patent US11306100B2, “Spirooxindole compounds as GSK3B inhibitors and process for preparation thereof” (COUNCIL OF SCIENTIFIC & INDUSTRIAL RESEARCH, priority 2017, dated 2022).
Blank lines part the entries; values can stand above or below the molecule they belong to.

What was measured:
recombinant GSK3β = recombinant GSK3β (Homo sapiens, UniProt P49841); experiment: ADP-Glo kinase assay of GSK3β activity; type: biochemical; settings: for IC50: GSK3β kinase activity
Sequence of recombinant GSK3β (P49841 whole entry): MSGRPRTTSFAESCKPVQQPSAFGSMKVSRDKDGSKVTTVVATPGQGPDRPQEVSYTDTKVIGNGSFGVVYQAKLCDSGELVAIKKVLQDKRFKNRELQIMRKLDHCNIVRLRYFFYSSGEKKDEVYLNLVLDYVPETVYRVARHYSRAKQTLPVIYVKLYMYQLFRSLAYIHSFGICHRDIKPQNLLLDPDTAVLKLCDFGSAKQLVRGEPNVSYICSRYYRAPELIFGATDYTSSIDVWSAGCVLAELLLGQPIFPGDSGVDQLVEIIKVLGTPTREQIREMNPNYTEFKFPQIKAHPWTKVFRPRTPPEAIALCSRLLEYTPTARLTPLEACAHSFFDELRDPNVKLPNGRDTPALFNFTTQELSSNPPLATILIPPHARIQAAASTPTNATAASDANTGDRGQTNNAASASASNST
Procedure: Activity of recombinant GSK3β is measured using ADP-Glo Kinase assay according to supplier's standard protocol with minor modifications in 384 well format. Briefly, kinase reaction mixture was prepared by adding […] of recombinant enzyme, 2 μM ATP, 1 μg of enzyme substrate along with test compound or DMSO to a final volume of 5 μl. The kinase reaction was performed by incubating the mixture at room temperature for 17 mins. To correct reaction back ground a substrate blank reaction was also performed. ADP glow reagent (equal volume to reaction mixture) was added to the reaction mixture to deplete any unused ATP added to the kinase reaction and incubated at further 40 min at 27° C. Then 10 μl of kinase detection reagent was added followed by incubation for 30 min at 27° C. to convert ADP to ATP and introduce luciferase to measure kinase activity. The luminescence was measured using luminometer (Perkin Elmer) which is directly proportional to ADP generated in kinase reaction. To determine the amount of ADP produced in kinase reaction and calculate specific activity of the enzyme, a conversion curve is prepared by serial dilution of ADP and ATP mixture. Specific activity of the GSK3β was calculated using the following equation. (ADP(kinase reaction)−ADP(substrate blank)) in mmol)/(Reaction time in min)×(GSK3β in mg).

PANC-1 cells [1] = experiment: Cell viability, Sulforhodamine B assay; type: cell-based
Procedure: Cell viability was measured using Sulforhodamine B assay. The cytotoxic effect of the compounds with GSK3β inhibitory potential was tested against PANC-1 cells. Initially, the PANC-1 cells were seeded in flat bottom 96-well plate (5000 cells/100 μL) in complete medium and cultured for 18 hrs under standard conditions. After 18 h the cells were treated with either the different concentration of compounds, standard drugs or DMSO as solvent control. The final DMSO concentration to cells was maintained <2% in all cytotoxic assays. Each compound was tested in triplicate and the cytotoxicity was determined as the average of that triplicate. Further, the plates were incubated for another 48 h in an incubator maintained at 37° C. with a constant supply of 5% CO2. The cells were fixed using 10% TCA and incubated for 1 h at 4° C. Then the plates were rinsed carefully with MQ water and air dried at room temperature. To all the wells of MTP plate 0.057% SRB solution was added and kept for approximately 30 min before it was rinsed off using 1% acetic acid. The plates were then air dried and 100 μL of 10 mM tris base was added to each well to solubilize the SRB before absorbance was measured at 510 nm. The measure of absorbance is directly proportional to cell growth and is thus used to calculate % reduction in the rate of cell proliferation according to control DMSO treated cells. All experiments were performed in triplicates; mean % age proliferation values with ±SD were plotted here.

[2] = test system: cellular GSK3β signalling in PANC-1 cells; experiment: Western blot of GSK3β signalling and NFkB target proteins in PANC-1 cells; type: cell-based
Procedure: The compounds inhibiting GSK3β activity in-vitro added to PANC-1 cells to determine their potential against intracellular GSK3β signalling pathways in cancer cells. Briefly, PANC-1 cells were plated in 60 mm plates (100,000 cells/4 mL) and cultured in the standard DMEM medium containing 10% serum. After culturing for 18 hrs, different concentrations of test compounds or standard controls prepared in DMSO were added to culture media to achieve final concentration 0 to 100 μM of compound to cells. Cells were further continued to grow for 48 h with constant supply of 5% CO2 in humid incubator. The time course (0 to 48 h) experiment was carried out simultaneously with fixed concentration of compound showing 50% growth inhibition. At the end of the experiments, all cells were scraped directly in cold PBS and washed for 3 times before lysis directly in 2D lysis buffer (8M urea, 2M thiourea, 4% CHAPS, 4 mM tris base and 65 mM DTT) for isolation of proteins to perform western blots. The protein concentration was determined by modified Bradford assay.
To perform western blot, protein extracts were separated on 12% SDS-PAGE and electrophoretically (1 mA/cm^2 membrane for 1 hr) transferred onto the nitrocellulose membrane by semi-dry method. After protein transfer, membrane was stained with Ponceau S solution (0.2% Ponceau S in 3% Trichloroacetic acid) for 2 min to see efficiency of electrophoretic transfer. The membrane was destained in ddH2O to visualize the protein bands and further destained with TBST (20 mM Tris, 138 mM NaCl, pH 7.6 and 0.1% Tween 20) for blotting. To avoid non-specific detection of target proteins, blotted membranes were blocked with BSA (3% BSA in TBST solution). All antibodies against specific protein targets of interest were purchased from Cell Signaling Technology, USA if not mentioned specifically. Then the blots were incubated with antibodies prepared in blocking buffer (1:1000 Antibody to blocking buffer dilution) for 18 h with constant shaking at 4° C. Three washing steps in PBS each for 5 mins removed the excess and non-specific antibodies. For visualization, blots were incubated with secondary antibody conjugated to either horseradish peroxidase or alkaline phosphatase [anti-(mouse IgG) or anti-(rabbit IgG), diluted 1:5000 in TBST] for 1 h at room temperature. After three washes in PBS, the reaction was developed either by addition of LumiGLO substrate (Cell Signaling Technology) followed by capturing on X-ray film or addition of chromogenic NBT (nitro-blue tetrazolium chloride) and BCIP (5-bromo-4-chloro-3′-indolyphosphate p-toluidine salt) substrate for alkaline phosphatase developing purple colored bands. The blots were scanned for densitometry performed using Image-J program.

PANC-1 cells [3] = experiment: Colony formation (soft agar, clonogenic) assay; type: cell-based; settings: TRAIL alone, 10 ηg/mL
Procedure: To determine the efficiency of GSK3β inhibitors in combination with the TRIAL on anchorage independent growth of PANC-1 cells soft agar assay were performed. The base agar (0.5%) was prepared by mixing equal amounts of 1% agar with 2× media (20% FBS and 2× antibiotics) filled in 6-well plate. Simultaneously, PANC-1 cells (14000/well) mixed with 2× media containing different concentrations of identified compounds alone or in combination with TRAIL mixed with 0.7% of sterile agar to achieve final concentration of […] top agar. The cell suspension was spread on solidified base agar. Then the plates were incubated in CO2 incubator for 14 days and the cells were fed with fresh media containing respective concentration and combination of TRIAL every 3 days. Upon termination (after 14 days of incubation) plates were stained with 0.005% of crystal violet for 1 h and excess stain was removed by washing with MQ. The number of blue colonies were counted using olympus Xi71 microscope.

IC50 (recombinant GSK3β; 2 μM ATP): 5.44 ± 1.49 µM
Molecule: CC(C)(O)c1cn(CC2CC3(CO2)C(=O)Nc2ccccc23)nn1 (stereo not shown) [AB-E, 5-((4-(2-Hydroxypropan-2-yl)-1H-1,2,3-triazol-1-yl)methyl)-4,5-dihydro-2H-spiro[furan-3,3′-indolin]-2′-one]

IC50 (recombinant GSK3β; 2 μM ATP): 4.91 ± 0.56 µM
melting point: 126 to 128 °C
Molecule: O=C1Nc2ccccc2C12COC(CN1CCOCC1)C2 (stereo not shown) [AB-K, 5-(Morpholinomethyl)-4,5-dihydro-2H-spiro [furan-3, 3′-indolin]-2′-one]

IC50 (recombinant GSK3β): 0.0176 µM
Molecule: Cc1ccc([N+](=O)[O-])cc1S(=O)(=O)N(C)/N=C/c1cnc2ccc(Br)cn12 [PIK-75, reference compound]

melting point: 170.6 °C
Molecule: O=C1Nc2ccccc2C12COC(CI)C2 (stereo not shown) [6a, 5-(Iodomethyl)-4,5-dihydro-2H-spiro[furan-3,3′-indolin]-2′-one]

IC50 (recombinant GSK3β): 3990 µM
Molecule: [Cl-].[Li+] [Licl, LiCl, reference compound]

melting point: 141 to 143 °C
Molecule: O=C1Nc2ccccc2C12COC(CN1CCN(Cc3ccccc3)CC1)C2 (stereo not shown) [AB-R, 5-((4-Benzylpiperazin-1-yl)methyl)-4,5-dihydro-2H-spiro[furan-3,3′-indolin]-2′-one]

IC50 (recombinant GSK3β; 2 μM ATP): 6.46 ± 0.63 µM
Molecule: O=C1Cc2ccccc2N1 [Oxindole]

IC50 (recombinant GSK3β; 2 μM ATP): 4.06 ± 1.67 µM
Molecule: O=C1Nc2ccccc2C12COC(CN1CCSCC1)C2 (stereo not shown) [AB-L, 5-(Thiomorpholinomethyl)-4,5-dihydro-2H-spiro[furan-3,3′-indolin]-2′-one]

melting point: 132 to 135 °C
Molecule: CCOC(=O)c1ccc(-c2cc(Cl)cc(Cl)c2OCc2cn(CC3CC4(CO3)C(=O)Nc3ccccc34)nn2)nc1C (stereo not shown) [AB-W, Ethyl6-(3,5-dichloro-2-((1-((2′-oxo-4,5-dihydro-2H-spiro[furan-3,3′-indoline]-5-yl)methyl)-1H-1,2,3-triazol-4-yl)methoxy)phenyl)-2-methylnicotinate]

IC50 (recombinant GSK3β; 2 μM ATP): 6.53 ± 0.52 µM
Molecule: CC(=O)Nc1ccccc1 [Acetanilide, reference compound]

melting point: 130 to 132 °C
Molecule: O=C1Nc2ccccc2C12COC(CN1CCN(c3ccccc3)CC1)C2 (stereo not shown) [AB-X, 5-((4-Phenylpiperazin-1-yl)methyl)-4,5-dihydro-2H-spiro[furan-3,3′-indolin]-2′-one]

inhibition of GSK3β in in-vitro kinase assays (recombinant GSK3β): potent inhibition
IC50 (recombinant GSK3β; 2 μM ATP): 3.59 ± 0.98 µM
melting point: 175 to 177 °C
Molecule: O=C1Nc2ccccc2C12COC(Cn1cc(-c3ccccc3)nn1)C2 (stereo not shown) [AB-C, 5-((4-Phenyl-1H-1,2,3-triazol-1-yl)methyl)-4,5-dihydro-2H-spiro[furan-3,3′-indolin]-2′-one]
effectiveness against cell growth (PANC-1 cells [1]; FIG. 3B, low concentration of TRAIL (1 ηg/mL)): not effective compared to remaining compounds
effectiveness against cell growth / sensitisation to TRAIL (PANC-1 cells [1]; in combination with TRAIL (10 ηg/mL), FIG. 3A): less effective compared to other molecules
phosphorylation of GSK3β ([2]; PANC-1 cells treated with compound): significantly decreased
β-catenin level ([2]; PANC-1 cells versus control (DMSO)): accumulation of β-catenin

IC50 (recombinant GSK3β; 2 μM ATP): 4.68 ± 0.6 µM
melting point: 133 to 134 °C
Molecule: CCOC(=O)c1cn(CC2CC3(CO2)C(=O)Nc2ccccc23)nn1 (stereo not shown) [AB-F, Ethyl-1-((2′-oxo-4,5-dihydro-2H-spiro[furan-3,3′-indoline]-5-yl)methyl)-1H-1,2,3-triazole-4-carboxylate]

IC50 (recombinant GSK3β; 2 μM ATP): 4.93 ± 0.53 µM
Molecule: O=Cc1ccccc1OCc1cn(CC2CC3(CO2)C(=O)Nc2ccccc23)nn1 (stereo not shown) [AB-P, 2-((1-((2′-Oxo-4,5-dihydro-2H-spiro[furan-3,3′-indoline]-5-yl)methyl)-1H-1,2,3-triazol-4-yl)methoxy)benzaldehyde]

melting point: 120 to 122 °C
Molecule: COC(=O)c1ccc(-c2cc(Cl)ccc2OCc2cn(CC3CC4(CO3)C(=O)Nc3ccccc34)nn2)nc1C (stereo not shown) [AB-N, Methyl-6-(5-chloro-2-((1-((2′-oxo-4,5-dihydro-2H-spiro[furan-3,3′-indoline]-5-yl)methyl)-1H-1,2,3-triazol-4-yl)methoxy)phenyl)-2-methylnicotinate]

B1: TRAIL: Tumor necrosis factor-related apoptosis-inducing ligand (TRAIL) (protein, UniProt P50591 1-281, looked up)
Tumor necrosis factor ligand …: MAMMEVQGGPSLGQTCVLIVIFTVLLQSLCVAVTYVYFTNELKQMQDKYSKSGIACFLKEDDSYWDPNDEESMNSPCWQVKWQLRQLVRKMILRTSEETISTVQEKQQNISPLVRERGPQRVAAHITGTRGRSNTLSSPNSKNEKALGRKINSWESSRSGHSFLSNLHLRNGELVIHEKGFYYIYSQTYFRFQEEIKENTKNDKQMVQYIYKYTSYPDPILLMKSARNSCWSKDAEYGLYSIYQGGIFELKENDRIFVSVTNEHLIDMDHEASFFGAFLVG
cell death in PANC-1 cells (PANC-1 cells [1]; TRAIL alone (10 ηg/ml)): did not cause any significant cell death
inhibition of colony formation (PANC-1 cells [3]): did not show effective inhibition on colony formation
